These results are taken from paper PMC9220351, “Evaluation of a Conformationally Constrained Indole Carboxamide as a Potential Efflux Pump Inhibitor in Pseudomonas aeruginosa” (Antibiotics, 2022).

The assay has as its system P. aeruginosa ATCC 27853 inner membrane potential. In words: DiOC2 (3) membrane polarization assay. The format is cell-based, Pseudomonas aeruginosa. The settings on record: Pseudomonas aeruginosa, ATCC27853; read-out: IC50 (DiOC2 (3) membrane polarization, Figure 4A). How it is done: RND efflux pumps couple the influx of protons from the proton gradient across the inner membrane to the efflux of drugs and other molecules. […] The effect of TXA09155 on the proton gradient of P. aeruginosa was assessed with a fluorescence-based 3,3′-diethyloxacarbocyanine iodide [DiOC2 (3)] assay that was developed to measure membrane potential changes in Gram-negative bacteria. DiOC2 (3) is a positively charged fluorescent dye that accumulates within cells in a charge-dependent manner, shifting its fluorescence spectrum from green to red at high concentrations due to concentration-dependent dye stacking. […] Azithromycin and CCCP were used as […] controls, respectively.
P. aeruginosa membrane polarization assays were conducted as described previously using strain ATCC 27853. […] DiOC2 (3) fluorescence was recorded in a microplate reader using 450 nm excitation and 670 nm emission (for red fluorescence). Background correction for each concentration of each compound was obtained from reading the fluorescence of compounds in the resuspension buffer without cells. After background correction, fluorescence was normalized to that of the vehicle (DMSO) only. After a 30 min incubation at 37 °C, DiOC2 (3) fluorescence was recorded using a SpectraMax iD5 spectrophotometer (Molecular Devices, San Jose, CA, USA) following excitation at 450 nm. […]

On to `N#CC(C#N)=NNc1cccc(Cl)c1` [CCCP, Carbonyl cyanide 3-chlorophenylhydrazone], for which the IC50 (in general, the concentration that inhibits the measured activity by half) came to 15 nM.
